Data from US7371379B2, “Dosages for treatment with anti-ErbB2 antibodies” (Genentech, Inc., priority 1999, dated 2008).

Assays:
[1] = system: ErbB2-overexpressing metastatic breast cancer; assay: clinical study of chemotherapy with or without HERCEPTIN (Example 1); format: in vivo, human
Description: Eligibility Criteria Patients had to fulfill all of the following criteria to be eligible for study admission: • Metastatic breast cancer • Overexpression of the ErbB2 (HER2) oncogene (2+ to 3+ as determined by immunohistochemistry or fluorescence in situ hybridization (FISH). [Tumor expression of ErbB2 can be determined by immunohistochemical analysis, as previously described (Slamon et al., [1987] and [1989], supra), of a set of thin sections prepared from the patient's paraffin-archived tumor blocks. The primary detecting antibody used is murine 4D5 MAb, which has the same CDRs as the humanized antibody used for the treatment.
Beginning on day 7, patients received weekly administration of 2 mg/kg antibody (i.v.) over a 90-minute period.
The patients received one of two chemotherapy regimens for a minimum of six cycles, provided their disease was not progressing: a) cyclophosphamide and doxorubicin or epirubicin (AC), if patients have not received anthracycline therapy in the adjuvant setting, or b) paclitaxel (T, TAXOL®), if patients have received any anthracycline therapy in the adjuvant setting. […] Subsequent doses of the antibody were given immediately before chemotherapy administration, if the initial dose of the antibody was well tolerated. If the first dose of the antibody was not well tolerated, subsequent infusions continued to precede chemotherapy administration by 24 hours. Patients were permitted to continue receiving chemotherapy beyond six cycles if, in the opinion of the treating physician, they were continuing to receive treatment benefit.
Cyclophosphamide (600 mg/m^2) was given either by iv push over a minimum period of 3 minutes or by infusion over a maximum period of 2 hours.
Doxorubicin (60 mg/m^2) or epirubicin (75 mg/m^2) were given either by slow iv push over a minimum period of 3-5 minutes or by infusion over a maximum period of 2 hours, according to institutional protocol.
All patients receiving paclitaxel were premedicated with dexamethasone (or its equivalent) 20 mg×2, administered orally 12 and 6 hours prior to paclitaxel; diphenhydramine (or its equivalent) 50 mg, iv, administered 30 minutes prior to paclitaxel, and […] (or another H2 blocker) 300 mg, iv, administered 30 minutes prior to paclitaxel.
Progressive disease also includes those instances when new lesions have appeared.
Complete Response Disappearance of all radiographically and/or visually apparent tumor for a minimum of 4 weeks. Skin and chest wall complete responses had to be confirmed by biopsy. […]
Time to disease progression (TTP) was calculated from the beginning of therapy to progression. Confidence limits for response rates were calculated using the exact method for a single proportion. […]

BT-474M1 [2] = assay: nude mouse xenograft tumor volume, i.v. bolus versus s.c. bolus (Example 4); format: in vivo; conditions: Group 1, IV Control
Protocol: (§1) This study was set up as disclosed herein in Example 3 for the comparison of intravenous bolus and subcutaneous infusion delivery. A sustained release estrogen implant was inserted subcutaneously one day before tumor cell innoculation as described in Example 3. Six days after tumor cell innoculation, the initial tumor measurement was performed. […] Animals were dosed once weekly for 4 weeks.
(§2) The mice were treated according to the information in Table 4 and using the techniques disclosed in Example 3. […] The control E25 antibody serum concentration was determined according to standard immunoassay techniques.
For this study, efficacy was measured as a decrease in tumor volume. Tumor volume was measured twice weekly.

[3] = serum antibody concentration in xenograft mice (Example 4); format: in vivo, mouse; conditions: Group 1, IV, MD 4 mg/kg
Protocol: as §1, §2

[4] = serum antibody concentration in xenograft mice (Example 3); format: in vivo, mouse; conditions: control s.c. infusion
Protocol: (§3) Animals were exposed to estrogen by subcutaneous sustained release estrogen pellet 9 days before the start of dosing to promote growth of grafted tumor cells. The animals were inoculated with the BT474M 1 cells 8 days before the beginning of treatment and tumors were allowed to grow. […] The study groups were treated until day 35. […] Tumor volumes were measured two days before dosing began and twice per week from day 6 to day 35 in the study for which data is tabulated below. Tumors were measured in three dimensions and volumes were expressed in mm^3. Efficacy was determined by a statistical comparison (ANOVA) of tumor volumes of test animals relative to untreated control animals.

BT-474M1 [5] = assay: nude mouse xenograft tumor volume, i.v. bolus versus s.c. infusion (Example 3); format: in vivo; conditions: control s.c. infusion
Protocol: A study in a nude mouse xenograft model, which incorporates a human breast cancer cell line that naturally overexpresses the HER2 gene (BT-474M1, derived from BT-474 cells, ATCC Accession number HTB-20), comparing tumor volume as a function of i.v. bolus versus s.c. infusion was performed as follows. In the first study athymic nude nu nu 7-9 week old female mice were obtained from Taconic Inc (Germantown, N.Y.). To initiate tumor development, each mouse was inoculated subcutaneously with 3×10^6 BT474M1 cells suspended in Matrigel™. When tumor nodules reached a volume of approximately 100 mm^3, animals were randomized to 4 treatment groups.
as §3

[6] = median follow-up 10.5 months, H 4 mg/kg then 2 mg/kg weekly i.v.

| Compound | syndrome of myocardial dysfunction ([1]; Grade ¾) | AE(%) overall severe adverse events ([1]; median follow-up 10.5 months) | RR(%) [1, 6] | TTP(months) [1, 6] | Tumor Vol. Day 28, mm^3 (BT-474M1 [2]) | Tumor Vol. Day 31, mm^3 (BT-474M1 [2]) | Tumor Vol. Day 6, mm^3 (BT-474M1 [2]; LD 8, MD 4 mg/kg/week, initial measurement before first dose) | Day 6-Day 31 Area Under Curve Tumor Vol., mm^3 (BT-474M1 [2]; Day 17 excluded) | Serum Concentration, Mean ([3]; Day 0) | Serum Concentration, Mean ([3]; Day 7) | Serum Concentration, Mean ([3]; Day 14) | Serum Concentration, Mean ([3]; Day 21) | HERCEPTIN Serum Conc. (μg/ml), Day 27 [4] | Tumor Volume (area under curve) Day 6-Day 35 (BT-474M1 [5]) | Tumor Volume (mm^3), Day 35 (BT-474M1 [5]; IV LD 2.20 mg/kg, infusate […]) |
| --- | --- | --- | --- | --- | --- | --- | --- | --- | --- | --- | --- | --- | --- | --- | --- |
| CC(=O)O[C@H]1C(=O)[C@@]2(C)[C@H]([C@H](OC(=O)c3ccccc3)[C@]3(O)C[C@H](OC(=O)[C@H](O)[C@@H](NC(=O)c4ccccc4)c4ccccc4)C(C)=C1C3(C)C)[C@]1(OC(C)=O)CO[C@@H]1C[C@@H]2O [T, paclitaxel] | 0% | 59% | 25.0% | 4.2 months | – | – | – | – | – | – | – | – | – | – | – |
| rhu MAb E25: nonrelevant antibody E25 (non-specific for HER2 receptor, but a member of the monoclonal IgG class) | – | – | – | – | 1530 mm^3 | 1630 mm^3 | 321 mm^3 | 13600 mm^3 | 0 ng/mL | 25900 ng/mL | 34600 ng/mL | 38500 ng/mL | 4.16 ± 1.94 µg/mL | 5650 ± 4700 | 764 ± 700 mm^3 |
